Laboratory results as given in publication PMC7914897, “Cytotoxic Potential of a-Azepano- and 3-Amino-3,4-SeCo-Triterpenoids” (International Journal of Molecular Sciences, 2021).
Read-outs that look alike come from different tables or passages of the source.

Tests used:
OVCAR-3 (Ovarian cancer) = test: cells; settings: Homo sapiens
Colon Cancer subpanel = test: NCI-60 screen, subpanel; settings: Homo sapiens
CNS cancer subpanel = test: NCI-60 screen, subpanel; settings: Homo sapiens
Ovarian Cancer subpanel = test: NCI-60 screen, subpanel; settings: Homo sapiens
Renal Cancer subpanel = test: NCI-60 screen, subpanel; settings: Homo sapiens
MOLT-4 (Leukemia) = test: NCI-60 screen (SRB, 48 h); settings: Homo sapiens
EKVX (NSC lung cancer) = test: NCI-60 screen (SRB, 48 h); settings: Homo sapiens
HOP-62 (NSC lung cancer) = test: NCI-60 screen (SRB, 48 h); settings: Homo sapiens
HOP-92 (NSC lung cancer) = test: NCI-60 screen (SRB, 48 h); settings: Homo sapiens
[1] = test system: NCI-H226 (NSC lung cancer); test: NCI-60 screen (SRB, 48 h); settings: Homo sapiens
[2] = test system: NCI-H322M (NSC lung cancer); test: NCI-60 screen (SRB, 48 h); settings: Homo sapiens
COLO 205 (Colon cancer) = test: NCI-60 screen (SRB, 48 h)
HT29 (Colon cancer) = test: NCI-60 screen (SRB, 48 h); settings: Homo sapiens
SW-620 (Colon cancer) = test: NCI-60 screen (SRB, 48 h); settings: Homo sapiens
SF-295 (CNS cancer) = test: NCI-60 screen (SRB, 48 h); settings: Homo sapiens
SNB-75 (CNS cancer) = test: NCI-60 screen (SRB, 48 h); settings: Homo sapiens
M14 (Melanoma) = test: NCI-60 screen (SRB, 48 h); settings: Homo sapiens
SK-MEL-28 (Melanoma) = test: NCI-60 screen (SRB, 48 h); settings: Homo sapiens
OVCAR-5 (Ovarian cancer) = test: NCI-60 screen (SRB, 48 h); settings: Homo sapiens
SK-OV-3 (Ovarian cancer) = test: NCI-60 screen (SRB, 48 h); settings: Homo sapiens
A498 (Renal cancer) = test: NCI-60 screen (SRB, 48 h); settings: Homo sapiens
CAKI-1 (Renal cancer) = test: NCI-60 screen (SRB, 48 h); settings: Homo sapiens
UO-31 (Renal cancer) = test: NCI-60 screen (SRB, 48 h); settings: Homo sapiens
DU-145 (Prostate cancer) = test: NCI-60 screen (SRB, 48 h); settings: Homo sapiens
T-47D (Breast cancer) = test: NCI-60 screen (SRB, 48 h); settings: Homo sapiens, T47D
[3] = test system: panel of approximately 60 cancer cell lines; test: NCI-60 screen (SRB, 48 h), full panel

**Q.** What does the source list for `CC(C)=C1CCC=C2CC[C@]3(C)[C@H](CC[C@@H]4[C@@]5(C)CCCNC(C)(C)[C@@H]5CC[C@]43C)[C@H]21` [Compound 9]?
**A.** GI50 (OVCAR-3 (Ovarian cancer); OVCAR-3): 1.91 µM; IC (TGI) (OVCAR-3 (Ovarian cancer); OVCAR-3, 48 h, read-out: TGI): 3.37 µM; CC50 (OVCAR-3 (Ovarian cancer); OVCAR-3, read-out: LC50): 5.93 µM; IC (TGI) (Colon Cancer subpanel; 48 h, read-out: TGI MG_MID): 3.03 µM; GI50 (Colon Cancer subpanel; read-out: GI50 MG_MID): 1.55 µM; IC (TGI) (CNS cancer subpanel; 48 h, read-out: TGI MG_MID): 3.44 µM; GI50 (CNS cancer subpanel; read-out: GI50 MG_MID): 1.83 µM; CC50 (CNS cancer subpanel; read-out: LC50 MG_MID): 6.61 µM; IC (TGI) (Ovarian Cancer subpanel; 48 h, read-out: TGI MG_MID): 3.51 µM; GI50 (Ovarian Cancer subpanel; read-out: GI50 MG_MID): 1.86 µM; CC50 (Ovarian Cancer subpanel; read-out: LC50 MG_MID): 6.19 µM; IC (TGI) (Renal Cancer subpanel; 48 h, read-out: TGI MG_MID): 3.25 µM; GI50 (Renal Cancer subpanel; read-out: GI50 MG_MID): 1.72 µM; CC50 (Renal Cancer subpanel; read-out: LC50 MG_MID): 6.03 µM; GI50 (MOLT-4 (Leukemia); MOLT-4): 1.59 µM; IC (TGI) (MOLT-4 (Leukemia); MOLT-4, 48 h, read-out: TGI): 3.7 µM; GI50 (EKVX (NSC lung cancer)): 1.74 µM; IC (TGI) (EKVX (NSC lung cancer); 48 h, read-out: TGI): 3.38 µM; CC50 (EKVX (NSC lung cancer); read-out: LC50): 6.56 µM; GI50 (HOP-62 (NSC lung cancer); HOP-62): 1.7 µM; IC (TGI) (HOP-62 (NSC lung cancer); HOP-62, 48 h, read-out: TGI): 3.25 µM; GI50 (HOP-92 (NSC lung cancer); HOP-92): 1.39 µM; IC (TGI) (HOP-92 (NSC lung cancer); HOP-92, 48 h, read-out: TGI): 2.77 µM; CC50 (HOP-92 (NSC lung cancer); HOP-92, read-out: LC50): 5.52 µM; GI50 ([1]; NCI-H226): 1.79 µM; IC (TGI) ([1]; NCI-H226, 48 h, read-out: TGI): 3.54 µM; GI50 [2]: 1.68 µM; IC (TGI) ([2]; 48 h, read-out: TGI): 3.07 µM; CC50 ([2]; read-out: LC50): 5.61 µM; Growth % of the Most Sensitive Cell Lines (COLO 205 (Colon cancer); COLO 205, 1 dose 10 µM): −93.54%; GI50 (COLO 205 (Colon cancer); Homo sapiens, COLO 205): 1.48 µM; IC (TGI) (COLO 205 (Colon cancer); Homo sapiens, COLO 205, 48 h, read-out: TGI): 2.97 µM; GI50 (HT29 (Colon cancer); HT-29): 0.94 µM; IC (TGI) (HT29 (Colon cancer); HT-29, 48 h, read-out: TGI): 2.31 µM; GI50 (SW-620 (Colon cancer); SW-620): 1.66 µM; IC (TGI) (SW-620 (Colon cancer); SW-620, 48 h, read-out: TGI): 3.23 µM; GI50 (SF-295 (CNS cancer); SF-295): 1.87 µM; IC (TGI) (SF-295 (CNS cancer); SF-295, 48 h, read-out: TGI): 3.42 µM; CC50 (SF-295 (CNS cancer); SF-295, read-out: LC50): 6.24 µM; GI50 (SNB-75 (CNS cancer); SNB-75): 1.98 µM; IC (TGI) (SNB-75 (CNS cancer); SNB-75, 48 h, read-out: TGI): 3.84 µM; CC50 (SNB-75 (CNS cancer); SNB-75, read-out: LC50): 7.44 µM; GI50 (M14 (Melanoma); M14): 1.73 µM; IC (TGI) (M14 (Melanoma); M14, 48 h, read-out: TGI): 3.26 µM; CC50 (M14 (Melanoma); M14, read-out: LC50): 6.12 µM; GI50 (SK-MEL-28 (Melanoma); SK-MEL-28): 1.81 µM; IC (TGI) (SK-MEL-28 (Melanoma); SK-MEL-28, 48 h, read-out: TGI): 3.32 µM; CC50 (SK-MEL-28 (Melanoma); SK-MEL-28, read-out: LC50): 6.11 µM; GI50 (OVCAR-5 (Ovarian cancer); OVCAR-5): 1.67 µM; IC (TGI) (OVCAR-5 (Ovarian cancer); OVCAR-5, 48 h, read-out: TGI): 3.07 µM; CC50 (OVCAR-5 (Ovarian cancer); OVCAR-5, read-out: LC50): 5.65 µM; GI50 (SK-OV-3 (Ovarian cancer); SK-OV-3): 1.89 µM; IC (TGI) (SK-OV-3 (Ovarian cancer); SK-OV-3, 48 h, read-out: TGI): 3.5 µM; CC50 (SK-OV-3 (Ovarian cancer); SK-OV-3, read-out: LC50): 6.46 µM; GI50 (A498 (Renal cancer); A498): 1.87 µM; IC (TGI) (A498 (Renal cancer); A498, 48 h, read-out: TGI): 3.6 µM; CC50 (A498 (Renal cancer); A498, read-out: LC50): 6.93 µM; GI50 (CAKI-1 (Renal cancer); CAKI-1): 1.69 µM; IC (TGI) (CAKI-1 (Renal cancer); CAKI-1, 48 h, read-out: TGI): 3.05 µM; CC50 (CAKI-1 (Renal cancer); CAKI-1, read-out: LC50): 5.53 µM; GI50 (UO-31 (Renal cancer); UO-31): 1.47 µM; IC (TGI) (UO-31 (Renal cancer); UO-31, 48 h, read-out: TGI): 2.82 µM; CC50 (UO-31 (Renal cancer); UO-31, read-out: LC50): 5.42 µM; GI50 (DU-145 (Prostate cancer); DU-145): 1.98 µM; IC (TGI) (DU-145 (Prostate cancer); DU-145, 48 h, read-out: TGI): 3.55 µM; CC50 (DU-145 (Prostate cancer); DU-145, read-out: LC50): 6.38 µM; GI50 (T-47D (Breast cancer)): 1.63 µM; IC (TGI) (T-47D (Breast cancer); 48 h, read-out: TGI): 3.46 µM; Positive Cytostatic Effect (cell lines with percent growth 0 to 50 / total) ([3]; 1 dose 10 µM): 15/58; Positive Cytotoxic Effect (cell lines with percent growth < 0 / total) ([3]; 1 dose 10 µM): 24/58; number of cancer cell lines the compound was active against ([3]; 1 dose 10 µM): 36 cell lines; activity at 10 µM ([3]; Homo sapiens, 48 h, read-out: Mean Growth, %): 13.6%; activity at 10 µM ([3]; Homo sapiens, 48 h, read-out: Range of Growth, %): -100 to 107%; IC (TGI) ([3]; Homo sapiens, 48 h, read-out: TGI MG_MID60, average over all cell lines): 3.35 µM; GI50 ([3]; Homo sapiens, read-out: GI50 MG_MID60): 1.75 µM; GI50 ([3]; Homo sapiens, read-out: GI50 against all human tumor cell lines): < 3 µM; GI50 ([3]; Homo sapiens, read-out: GI50 against the most sensitive cell lines): 0.2 to 0.94 µM; CC50 ([3]; Homo sapiens, read-out: LC50 MG_MID60, average over all cell lines): 6.43 µM
